Measured values from patent US8846669B2, “Oxazolidinone derivative and medical composition containing same” (Legochem Biosciences, Inc., priority 2011, dated 2014).
≈ marks a conversion by molar mass, not a printed value. Like-named read-outs stand apart in the source and are kept apart here.

Columns and labels:
Test in all cases: In vitro antibacterial activity, broth microdilution MIC90
Format in all cases: cell-based
[1] = system: Vancomycin Resistant Enterococcus faecalis; conditions: strain 6, E. faecalis VanA
Method: (§1) MIC90 was measured by broth microdilution method based on CLSI standards [reference: Clinical and Laboratory Standards Institute Document. (2000) Methods for Dilution Antimicrobial Susceptibility Test for Bacteria that Grow Aerobically-Fifth Edition: M7-A5. CLSI, Villanova, Pa.].
(§2) Activities of 12 strains including Staphylococcus aureus, Methicillin Resistant Staphylococcus aureus, Staphylococcus epidermidis, Methicillin Resistant Staphylococcus epidermidis, Enterococcus faecalis, Vancomycin Resistant Enterococcus faecalis, Linezolid and Vancomycin Resistant Enterococcus faecalis, Enterococcus faecium, Vancomycin Resistant Enterococcus faecium, Linezolid and Vancomycin Resistant Enterococcus faecium, and Moraxella catarrhalis, were measured, and results are shown in Table 1 below.
(§3) The final concentration of test material in the antibacterial test was from 0.063 μg/mL (minimum) to 128 μg/mL (maximum), and the final concentration of DMSO used as an excipient was 2.5% (V/V). Linezolid represented by Formula B below (manufactured by Pfizer) was used as a control and bacterial activity thereof was compared with those of the test materials.

Moraxella catarrhalis = conditions: strain 12, M. catarrhalis
Method: as §1, §2, §3

Enterococcus faecalis = conditions: strain 5, E. faecalis
Method: as §1, §2, §3

Enterococcus faecium = conditions: strain 8, E. faecium
Method: as §1, §2, §3

[2] = system: Linezolid and Vancomycin Resistant Enterococcus faecium (strain 10); conditions: strain 10, E. faecium VanA LR
Method: as §1, §2, §3

[3] = system: Methicillin Resistant Staphylococcus aureus; conditions: strain 2, S. aureus MR
Method: as §1, §2, §3

[4] = system: Linezolid and Vancomycin Resistant Enterococcus faecium (strain 11); conditions: strain 11, E. faecium VanA LR
Method: as §1, §2, §3

[5] = system: Linezolid and Vancomycin Resistant Enterococcus faecalis; conditions: strain 7, E. faecalis VanA LR
Method: as §1, §2, §3

[6] = system: Staphylococcus epidermidis; conditions: strain 3, S. epidermidis
Method: as §1, §2, §3

[7] = system: Vancomycin Resistant Enterococcus faecium; conditions: strain 9, E. faecium VanA
Method: as §1, §2, §3

Staphylococcus aureus = conditions: strain 1, S. aureus
Method: as §1, §2, §3

[8] = system: Methicillin Resistant Staphylococcus epidermidis; conditions: strain 4, S. epidermidis MR
Method: as §1, §2, §3

[9] = Enterococcus faecalis, read-out: MIC90
[10] = Enterococcus faecium, read-out: MIC90
[11] = Staphylococcus aureus, read-out: MIC90
[12] = Staphylococcus epidermidis, read-out: MIC90

With `O=C(C(O)CO)N1CCN(c2ccc(-c3ccc(N4C[C@H](CNc5ccon5)OC4=O)cc3F)cn2)C=N1` (stereo partly drawn) [Compound 43] the MIC90 [1] was 1 µg/mL (≈ 1.9 µM), the MIC90 (Moraxella catarrhalis) was 2 µg/mL (≈ 3.81 µM) and the MIC90 (Enterococcus faecalis) was 0.5 µg/mL (≈ 0.951 µM). It also gave an MIC90 (Enterococcus faecium) of 0.25 µg/mL (≈ 0.476 µM), an MIC90 [2] of 4 µg/mL (≈ 7.61 µM) and an MIC90 [3] of 0.5 µg/mL (≈ 0.951 µM). It also gave an MIC90 [4] of 4 µg/mL (≈ 7.61 µM), an MIC90 [5] of 2 µg/mL (≈ 3.81 µM) and an MIC90 [6] of 1 µg/mL (≈ 1.9 µM). For the same compound, the MIC90 [7] was 0.5 µg/mL (≈ 0.951 µM), the MIC90 (Staphylococcus aureus) was 0.25 µg/mL (≈ 0.476 µM) and the MIC90 [8] was 2 µg/mL (≈ 3.81 µM).

`Cl.O=C1O[C@@H](COc2ccon2)CN1c1ccc(-c2ccc(N3C=NNCC3)nc2)c(F)c1` [Compound 44] was tested, and the MIC90 [1] was 4 µg/mL, the MIC90 (Moraxella catarrhalis) was >128 µg/mL and the MIC90 (Enterococcus faecalis) was 4 µg/mL. It also gave an MIC90 (Enterococcus faecium) of 1 µg/mL, an MIC90 [2] of 16 µg/mL and an MIC90 [3] of 1 µg/mL. For the same compound, the MIC90 [4] was 16 µg/mL, the MIC90 [5] was 16 µg/mL and the MIC90 [6] was 1 µg/mL. The MIC90 [7] was 2 µg/mL, the MIC90 (Staphylococcus aureus) was 0.5 µg/mL and the MIC90 [8] was 4 µg/mL.

`CN1CCN(c2ccc(-c3ccc(N4C[C@H](COc5ccon5)OC4=O)cc3F)cn2)C=N1` [Compound 45] was tested, and the MIC90 [1] was 4 µg/mL (≈ 8.84 µM), the MIC90 (Moraxella catarrhalis) was >128 µg/mL and the MIC90 (Enterococcus faecalis) was 2 µg/mL (≈ 4.42 µM). For the same compound, the MIC90 (Enterococcus faecium) was 0.5 µg/mL (≈ 1.11 µM), the MIC90 [2] was >128 µg/mL and the MIC90 [3] was 1 µg/mL (≈ 2.21 µM). For the same compound, the MIC90 [4] was >128 µg/mL, the MIC90 [5] was >128 µg/mL and the MIC90 [6] was 1 µg/mL (≈ 2.21 µM). It also gave an MIC90 [7] of 2 µg/mL (≈ 4.42 µM), an MIC90 (Staphylococcus aureus) of 0.5 µg/mL (≈ 1.11 µM) and an MIC90 [8] of 4 µg/mL (≈ 8.84 µM).

For `O=C(CO)N1CCN(c2ccc(-c3ccc(N4C[C@H](COc5ccon5)OC4=O)cc3F)cn2)C=N1` [Compound 46], the MIC90 [1] was 4 µg/mL (≈ 8.06 µM), the MIC90 (Moraxella catarrhalis) was >128 µg/mL and the MIC90 (Enterococcus faecalis) was 2 µg/mL (≈ 4.03 µM). For the same compound, the MIC90 (Enterococcus faecium) was 0.5 µg/mL (≈ 1.01 µM), the MIC90 [2] was 128 µg/mL (≈ 258 µM) and the MIC90 [3] was 0.5 µg/mL (≈ 1.01 µM). The MIC90 [4] was >128 µg/mL, the MIC90 [5] was 128 µg/mL (≈ 258 µM) and the MIC90 [6] was 0.5 µg/mL (≈ 1.01 µM). The MIC90 [7] was 2 µg/mL (≈ 4.03 µM), the MIC90 (Staphylococcus aureus) was 0.25 µg/mL (≈ 0.504 µM) and the MIC90 [8] was 32 µg/mL (≈ 64.5 µM).

For `Cl.NCC(=O)N1CCN(c2ccc(-c3ccc(N4C[C@H](COc5ccon5)OC4=O)cc3F)cn2)C=N1` [Compound 48], the MIC90 [1] was 4 µg/mL, the MIC90 (Moraxella catarrhalis) was 32 µg/mL and the MIC90 (Enterococcus faecalis) was 4 µg/mL. It also gave an MIC90 (Enterococcus faecium) of 1 µg/mL, an MIC90 [2] of 16 µg/mL and an MIC90 [3] of 1 µg/mL. It also gave an MIC90 [4] of 32 µg/mL, an MIC90 [5] of 32 µg/mL and an MIC90 [6] of 1 µg/mL. The MIC90 [7] was 2 µg/mL, the MIC90 (Staphylococcus aureus) was 0.5 µg/mL and the MIC90 [8] was 4 µg/mL.

`O=C(C(O)CO)N1CCN(c2ccc(-c3ccc(N4C[C@H](COc5ccon5)OC4=O)cc3F)cn2)C=N1` (stereo partly drawn) [Compound 50] was tested, and the MIC90 [1] was 4 µg/mL (≈ 7.6 µM), the MIC90 (Moraxella catarrhalis) was >128 µg/mL and the MIC90 (Enterococcus faecalis) was 2 µg/mL (≈ 3.8 µM). It also gave an MIC90 (Enterococcus faecium) of 0.5 µg/mL (≈ 0.95 µM), an MIC90 [2] of 16 µg/mL (≈ 30.4 µM) and an MIC90 [3] of 1 µg/mL (≈ 1.9 µM). The MIC90 [4] was 32 µg/mL (≈ 60.8 µM), the MIC90 [5] was 16 µg/mL (≈ 30.4 µM) and the MIC90 [6] was 1 µg/mL (≈ 1.9 µM). For the same compound, the MIC90 [7] was 2 µg/mL (≈ 3.8 µM), the MIC90 (Staphylococcus aureus) was 0.5 µg/mL (≈ 0.95 µM) and the MIC90 [8] was 4 µg/mL (≈ 7.6 µM).

In the case of `O=C(O)CN1CCN(c2ccc(-c3ccc(N4C[C@H](COc5ccon5)OC4=O)cc3F)cn2)C=N1` [Compound 51], the MIC90 [1] is reported as 4 µg/mL (≈ 8.06 µM), the MIC90 (Moraxella catarrhalis) is reported as >128 µg/mL and the MIC90 (Enterococcus faecalis) is reported as 4 µg/mL (≈ 8.06 µM). The MIC90 (Enterococcus faecium) was 1 µg/mL (≈ 2.01 µM), the MIC90 [2] was 32 µg/mL (≈ 64.5 µM) and the MIC90 [3] was 1 µg/mL (≈ 2.01 µM). For the same compound, the MIC90 [4] was 32 µg/mL (≈ 64.5 µM), the MIC90 [5] was 16 µg/mL (≈ 32.2 µM) and the MIC90 [6] was 1 µg/mL (≈ 2.01 µM). It also gave an MIC90 [7] of 4 µg/mL (≈ 8.06 µM), an MIC90 (Staphylococcus aureus) of 0.5 µg/mL (≈ 1.01 µM) and an MIC90 [8] of 4 µg/mL (≈ 8.06 µM).

Work on `CC(=O)NC[C@H]1CN(c2ccc(-c3ccc(N4CCN(C=O)C=N4)nc3)c(F)c2)C(=O)O1` [Compound 52] yielded an MIC90 [1, 9] of 0.5 µg/mL (≈ 1.14 µM), an MIC90 (Moraxella catarrhalis; Moraxella catarrhalis, read-out: MIC90) of 4 µg/mL (≈ 9.08 µM) and an MIC90 (Enterococcus faecalis; [9]) of 0.5 µg/mL (≈ 1.14 µM). It also gave an MIC90 (Enterococcus faecium; [10]) of 0.5 µg/mL (≈ 1.14 µM), an MIC90 [2, 10] of 1 µg/mL (≈ 2.27 µM) and an MIC90 [3, 11] of 0.5 µg/mL (≈ 1.14 µM). It also gave an MIC90 [4, 10] of 1 µg/mL (≈ 2.27 µM), an MIC90 [5, 9] of 1 µg/mL (≈ 2.27 µM) and an MIC90 [6, 12] of 0.25 µg/mL (≈ 0.568 µM). It also gave an MIC90 [7, 10] of 0.5 µg/mL (≈ 1.14 µM), an MIC90 (Staphylococcus aureus; [11]) of 0.25 µg/mL (≈ 0.568 µM) and an MIC90 [8, 12] of 0.5 µg/mL (≈ 1.14 µM).
